We go through four molecules from patent US20210174908A1, “CLASSIFICATION OF TUMOR MICROENVIRONMENTS” (Oncxerna Therapeutics, Inc., priority 2019, published 2021).

One assay concerns MDSC. The settings on record: pre-clinical models; cited from earlier work.
The test system of assay [1] is patients with gastric cancer. Description: Retrospective population-based TME classification of gastric cancer patients who received pembrolizumab (n = 45), RECIST response. In kind it is in vivo, human. The settings on record: for Class response rate: population-based classifier. The source says: The analysis included 45 gastric cancer tumor samples.
The ORR for all patients was 27% (12/45). […] When the patients were retrospectively analyzed and placed in the Class IA, the response rate was 80%; and in Class IS, the response rate was 18%.

Another assay concerns gastric cancer. The assay can be described thus: ANN classifier applied to pembrolizumab monotherapy gastric cancer data, threshold / probability score optimization. It counts as in vivo, human. The source says: Sensitivity refers to the number of true biomarker responders divided by number of actual responders; specificity refers to the number of true biomarker non-responders divided by number of actual non-responders; PPV refers to the number of true biomarker responders divided by number of total predicted biomarker responders (how well the biomarker-positive rating performs); and NPV—refers to the number of true biomarker non-responders divided by number of total predicted biomarker non-responders (how well the biomarker-negative rating performs).

The test system of assay [2] is HER2 negative metastatic breast cancer, NSCLC, hepatocellular carcinoma. Particulars: with paclitaxel (HER2 negative metastatic breast cancer), paclitaxel-carboplatin (advanced NSCLC), sorafenib (hepatocellular carcinoma), docetaxel (non-squamous NSCLC); cited from earlier work.
For another assay, the system named is solid tumors. Description: Navicixizumab Phase 1A dose-escalation trial, retrospective Z-score and ANN biomarker analysis (n = 39). In kind it is in vivo, human. Particulars: for Patients with benefit (SD or better): gynecological cancers. Here is the method:
A retrospective data analysis of a Phase 1A dose-escalation trial for patients with solid tumors. […] Patients with the above cancers had biopsies collected. Exploratory predictive biomarkers such as DLL4 and VEGF were measured in FFPE tumor specimens, either archived or fresh core needle biopsied at study entry (2 FFPE cores were preferred whenever possible) by immunohistochemistry. […] In the biomarker-positive subset, 48% achieved SD or better.
Model performance is tabulated in TABLE 40; and abbreviations and definitions are as follows; ACC is accuracy; AUC ROC is area under the receiving operator characteristic curve; Sensitivity is the number of true biomarker responders divided by number of actual responders; Specificity is the number of true biomarker non-responders divided by number of actual non-responders; PPV is positive predictive value, i.e., number of true biomarker responders divided by number of total predicted biomarker responders; NPV is negative predictive value, i.e., number of true biomarker non-responders divided by number of total predicted biomarker non-responders.

As to `CCCc1nn(C)c2c(=O)[nH]c(-c3cc(S(=O)(=O)N4CCN(C)CC4)ccc3OCC)nc12` [sildenafil], in the assay with MDSC, the “Effect on MDSC functions” value was “significantly inhibited the MDSC functions”.
Regarding Pembrolizumab, the “ORR (CR + PR) or class response rate” value is on record as 12/45 (27%) in assay [1] (All (ORR), n = 45); 0/8 (0%) in assay [1] (class A); 8/10 (80%) in assay [1] (class IA); 2/16 (12%) in assay [1] (class ID); 2/11 (18%) in assay [1] (class IS). Also, the CR was 3/45 in assay [1] (All, n = 45, patients/total); 0/8 in assay [1] (class A, patients/class); 2/10 in assay [1] (class IA, patients/class); 0/16 in assay [1] (class ID, patients/class); 1/11 in assay [1] (class IS, patients/class). Moreover, the PD is on record as 18/45 in assay [1] (All, n = 45, patients/total); 3/8 in assay [1] (class A, patients/class); 2/10 in assay [1] (class IA, patients/class); 7/16 in assay [1] (class ID, patients/class); 6/11 in assay [1] (class IS, patients/class). Also, the PR was 9/45 in assay [1] (All, n = 45, patients/total); 0/8 in assay [1] (class A, patients/class); 6/10 in assay [1] (class IA, patients/class); 2/16 in assay [1] (class ID, patients/class); 1/11 in assay [1] (class IS, patients/class). The Class response rate in assay [1] (Class A) stood at 0%; in assay [1] (Class IA, CR+PR in class / patients in class) it was 80%; in assay [1] (Class ID) it was 12%; in assay [1] (Class IS) it was 18%. The “Overall Response Rate (ORR)” value in assay [1] (all patients, n = 45, CR+PR divided by total number of patients (RECIST)) was 27%. Also, the “Biomarker positive Overall Response Rate (ORR)” value was determined as 70% in the assay on gastric cancer (Option 1: optimized threshold, both IS and IA groups (10/14)); 80% in the assay on gastric cancer (before threshold optimization). Also, the “Biomarker-positive ORR” value with gastric cancer (Option 2: optimized threshold, only the IA subgroup (8/8)) was 100%.

B1: Bavituximab (antibody, V domains shown)
VH: EVQLQQSGPELEKPGASVKLSCKASGYSFTGYNMNWVKQSHGKSLEWIGHIDPYYGDTSYNQKFRGKATLTVDKSSSTAYMQLKSLTSEDSAVYYCVKGGYYGHWYFDVWGAGTTVTVSS
VL: DIQMTQSPSSLSASLGERVSLTCRASQDIGSSLNWLQQGPDGTIKRLIYATSSLDSGVPKRFSGSRSGSDYSLTISSLESEDFVDYYCLQYVSSPPTFGAGTKLELK
notes: PS-targeting antibody
On to B1, for which the “Anti-tumor effects in clinical trials” value in assay [2] was “Promising anti-tumor effects”.

B2: Navicixizumab (antibody, chains of the INN, looked up, V domains shown)
VH: QVQLVQSGAEVKKPGASVKISCKASGYSFTAYYIHWVKQAPGQGLEWIGYISNYNRATNYNQKFKGRVTFTTDTSTSTAYMELRSLRSDDTAVYYCARDYDYDVGMDYWGQGTLVTVSS
VL: DIVMTQSPDSLAVSLGERATISCRASESVDNYGISFMKWFQQKPGQPPKLLIYAASNQGSGVPDRFSGSGSGTDFTLTISSLQAEDVAVYYCQQSKEVPWTFGGGTKVEIK
VH2: QVQLVQSGAEVKKPGASVKVSCKASGYTFTNYWMHWVRQAPGQGLEWMGDINPSNGRTSYKEKFKRRVTLSVDKSSSTAYMELSSLRSEDTAVYFCTIHYDDKYYPLMDYWGQGTLVTVSS
VL2: DIVMTQSPDSLAVSLGERATISCRASESVDNYGISFMKWFQQKPGQPPKLLIYAASNQGSGVPDRFSGSGSGTDFTLTISSLQAEDVAVYYCQQSKEVPWTFGGGTKVEIK
notes: anti-VEGF/anti-DLL4 bispecific antibody
In the case of B2, the “Patients achieving SD (Stable Disease) or better (RECIST 1.1)” value in the assay on solid tumors (all-comers biomarker subset, n = 39) is 38%. The “Patients achieving SD or better” value in the assay on solid tumors (biomarker-positive subset) is 48%. Further, the “Patients with benefit (SD or better)” value is listed as 0% in the assay on solid tumors (biomarker-negative (n=6)) and 58% in the assay on solid tumors (biomarker-positive (n=12)).
